Key:
[1] = Solubility and stability in simulated gastric fluid (SGF); assay type: in vitro ADME; conditions: pH 1.2, 37 °C, n = 2
Description: (§1) SGF and SIF were prepared as per USP method. Briefly, SGF was prepared by adding 2 g of sodium chloride and 3.2 g of pepsin with water and pH was adjusted to 1.2 ± 0.1 using hydrochloric acid (7 mL) and volume made up to 1 L. SIF was prepared by dissolving 6.8 g monobasic potassium phosphate and 10 g pancreatin in Milli-Q water (Millipore, Billerica, MA, USA). pH was adjusted to 6.8 ± 0.1 with sodium hydroxide solution and volume was made upto 1 L. Reactions were initiated by spiking DMSO stock solutions of GE phenolics 10 μL into 1990 μL of SGF and SIF incubated at 37 °C for 10 min. Samples (200 μL) were withdrawn at 0, 15, 30, and 60 min for SGF and at 0, 30, 60, and 120 min for SIF and quenched with 200 μL acetonitrile containing internal standard.

[2] = Liver microsomal stability, human; assay type: in vitro ADME; conditions: protein 0.5 mg/mL; for remaining at 0.5 h, 10 µM: both sexes, pooled liver microsomes, pH 7.4, substrate 10 µM, n = 2, read-out: % Remaining at 30 min; for Intrinsic Clearance: human liver microsomes, substrate 10 µM, 45 mg protein/g liver
Description: (§2) Pooled liver microsomes from CD1 mouse, IGS Sprague-Dawley rat, Beagle dog, and mixed gender human were used for assays. Incubations (1 mL) consisted of liver microsomes (0.5 mg/mL), NADPH (1 mM) and 100 mM sodium phosphate buffer (pH 7.4). Following pre-incubation (10 min, 37 °C), reactions were initiated by spiking ACN/DMSO (80:20) stock solutions of GE phenolics (5 μL, 10 μM). Samples (100 μL) were withdrawn at 0, 5, 10, 15, 20 and 30 min and quenched with 200 μL acetonitrile containing internal standard. Concomitant NADPH-free control incubations were prepared similarly.

[3] = pH dependent kinetic solubility in hydrochloride, citrate and phosphate buffers; assay type: physicochemical; conditions: 23 °C, kinetic from dmso stock, tested 10 to 100 µM, n = 2
Description: Calibration standards were prepared by spiking 5 μL of DMSO stock solutions into 995 μL acetonitrile/buffer (1:1) mixture. Following centrifugation (10,000 rpm, 10 min, 25 °C) the reaction samples were diluted 1:1 with acetonitrile.

[4] = Liver microsomal stability, rat; assay type: in vitro ADME, IGS Sprague-Dawley rat; conditions: protein 0.5 mg/mL; for remaining at 0.5 h, 10 µM: IGS Sprague-Dawley, pooled liver microsomes, pH 7.4, substrate 10 µM, n = 2, read-out: % Remaining at 30 min; for Intrinsic Clearance: rat liver microsomes, substrate 10 µM, 45 mg protein/g liver
Description: as §2

[5] = Liver microsomal stability, mouse; assay type: in vitro ADME, CD1 mouse; conditions: protein 0.5 mg/mL; for remaining at 0.5 h, 10 µM: CD1, pooled liver microsomes, pH 7.4, substrate 10 µM, n = 2, read-out: % Remaining at 30 min; for Intrinsic Clearance: mouse liver microsomes, substrate 10 µM, 45 mg protein/g liver
Description: as §2

[6] = Solubility and stability in simulated intestinal fluid (SIF); assay type: in vitro ADME; conditions: pH 6.8, 37 °C, n = 2
Description: as §1

[7] = Liver microsomal stability, statements across species; assay type: in vitro ADME; conditions: CD1 (mouse), IGS Sprague-Dawley (rat), Beagle (dog), human, pooled liver microsomes, pH 7.4
Description: as §2

[8] = 100 mM citrate buffer, aqueous buffer, pH 4, citrate buffer
[9] = 100 mM phosphate buffer, aqueous buffer, pH 7.4, phosphate buffer
[10] = simulated gastric fluid, pH 2, hydrochloride buffer

SMILES	half-life at 10 µM [1] [h]	remaining at 0.5 h, 10 µM [2] [%]	Intrinsic Clearance [2] [mL/min/g Liver]	solubility at 2 h [3, 8] [µM]	solubility at 2 h [3, 9] [µM]	solubility at 2 h [3, 10] [µM]	remaining at 0.5 h, 10 µM [4] [%]	Intrinsic Clearance [4] [mL/min/g Liver]	remaining at 0.5 h, 10 µM [5] [%]	Intrinsic Clearance [5] [mL/min/g Liver]	half-life at 10 µM [6] [h]	half-life at 10 µM [7] [h]
CCCCC[C@H](O)CC(=O)CCc1ccc(O)c(OC)c1 [6G, 6-gingerol]	> 1	56	6.6	> 100	> 100	> 100	50	11.2	30	10.5	> 2	–
CCCCCCCCCC(O)CC(=O)CCc1ccc(O)c(OC)c1 (stereo not shown) [10G, 10-gingerol]	> 1	22	6.7	< 10	< 10	< 10	13	5.4	10	8.0	> 2	–
CCCCC/C=C/C(=O)CCc1ccc(O)c(OC)c1 [6S, 6-shogaol]	> 1	1	8.4	< 10	< 10	< 10	1	13.0	3	15.7	> 2	< 0.5
CCCCCCCC(O)CC(=O)CCc1ccc(O)c(OC)c1 (stereo not shown) [8G, 8-gingerol]	> 1	1	8.5	> 100	> 100	> 100	9	7.0	3	15.1	> 2	< 0.5

From paper PMC6154694, “Absorption, Metabolic Stability, and Pharmacokinetics of Ginger Phytochemicals” (Molecules : A Journal of Synthetic Chemistry and Natural …, 2017)
